In patent EP4775567A1, “IONIZABLE CATIONIC LIPID COMPOUNDS AS WELL AS PREPARATION METHOD THEREFOR AND USE THEREOF” (Scindy Pharmaceutical (Suzhou) Co., Ltd, priority 2023, dated 2025):

Legend:
[1] = Particle size and polydispersity index (PDI) by dynamic light scattering; type: physicochemical; details: luciferase mRNA lipid nanoparticles prepared from the compound; 25°C
Procedure: (§1) Luciferase mRNA was diluted in a 10-100 mM sodium citrate buffer solution at pH 4.0, with the concentration of the mRNA solution being 135 µg/ml. A mixed lipid ethanol solution was prepared at a molar ratio of ionizable cationic lipid compound (each exemplary compound) : DSPC: cholesterol : 2-[(polyethylene glycol)-2000]-N,N-ditetradecylacetamide (ALC-0159) of 50:10:38.5:1.5. The mRNA solution and the mixed lipid solution were mixed at a volume ratio of 3:1 in a nanodrug preparation device, followed by ultrafiltration to obtain luciferase mRNA lipid nanoparticles.
(§2) • 1. Determination of particle size and polydispersity index (PDI): The average particle size and PDI of the nanoparticle sample solutions in the examples were determined by dynamic light scattering using Malvern ZetaSizer Nano ZS90. The measurement angle was 90°, the refractive index of the dispersant was 1.330, and the test temperature was 25°C. • 2. Zeta potential: The Zeta potential of the nanoparticle sample solutions in the examples was determined by electrophoretic light scattering (ELS) using Malvern ZetaSizer Nano ZS90. Refractive index of the dispersant: 1.330, Test temperature: 25°C. • 3. Encapsulation Rate: The Encapsulation Rate of luciferase mRNA in lipid nanoparticles was determined using a Quant-it Ribogreen RNA quantitation kit (ThermoFisher Scientific, UK) in accordance with the manufacturer's instructions.

[2] = Encapsulation Rate of luciferase mRNA in lipid nanoparticles (Quant-it Ribogreen RNA kit); type: physicochemical; details: luciferase mRNA in lipid nanoparticles prepared from the compound
Procedure: as §1, §2

HEK 293T cells = assay: In vitro transfection efficiency of luciferase mRNA lipid nanoparticles (luciferase activity); type: cell-based; details: for HEK 293T Cell Luciferase Activity: 100 ng dose, 96-well plate, 24 h incubation, luciferase mRNA lipid nanoparticles
Procedure: as §1
HEK-293T cells were used to evaluate the in vitro transfection efficiency of lipid nanoparticle compositions prepared from each exemplary compound. HEK293T cells were routinely cultured in DMEM + 10% FBS medium to ensure the cells were in the logarithmic growth phase. One day before transfection, the cells were seeded into a 96-well culture plate at an appropriate cell density and grown overnight. At the time of transfection, the cell confluency needed to reach 70-90%. The lipid nanoparticle compositions prepared from each exemplary compound were diluted into 4 different dose concentrations with DMEM and added to the 96-well cell culture plate, resulting in final concentrations of 400 ng, 200 ng, 100 ng and 50 ng per well, respectively. luciferase plasmid transfected using Lipofectamine 2000 was used as the positive control (PC). After incubation for 24 h in a 5% CO2 incubator at 37°C, the substrate was added to the wells, and the luciferase activity was determined using a microplate reader. […] The luciferase activity of the luciferase mRNA lipid nanoparticles prepared from Compound 1005 in HEK293T cells is shown in Fig. 1.

female Balb/c mice = assay: In vivo transfection efficiency and safety of luciferase mRNA lipid nanoparticles (whole-body live imaging); details: tail vein injection, single dose 0.3 mpk, 6 h after administration
Procedure: as §1
6-8 week-old female Balb/c mice were used to evaluate the in vivo transfection efficiency and safety of lipid nanoparticle compositions prepared from each exemplary compound. The lipid nanoparticles prepared from each exemplary compound were administered by tail vein injection at a single dose of 0.3 mpk. At specific time points after administration (e.g., 3 h, 6 h), live imaging of the animals was performed using a PerkinElmer small animal imaging system to determine the bioluminescent signal. The whole-body live imaging of mice at 3 h/6 h after intravenous administration of luciferase mRNA lipid nanoparticles prepared from Compound 1008 is shown in Fig. 2. […] Table 3 Summary of in vitro/in vivo Activity Evaluation of Lipid Nanoparticles Prepared from Compounds

[3] = Zeta potential by electrophoretic light scattering; type: physicochemical; details: luciferase mRNA lipid nanoparticles prepared from the compound; 25°C
Procedure: as §1, §2

[4] = Apparent pKa of blank lipid nanoparticles by TNS fluorescence; type: physicochemical; details: compound:DSPC:cholesterol:ALC-0159 50:10:38.5:1.5, pH 2 to 11
Procedure: The apparent pKa of lipid nanoparticles is correlated with the efficacy of lipid nanoparticles in delivering nucleic acids (see Jayaraman et al., Angewandte Chemie, International Edition (2012), 51(34), 8529-8533; Semple et al., Nature Biotechnology 28, 172-176 (2010)). The apparent pKa of nanoparticles prepared from different lipid compounds was determined using fluorescence based on 2-(p-toluidino)-6-naphthalenesulfonic acid (TNS). The fluorescent probe has no fluorescence in water but […] emits fluorescence when bound to lipid membranes. Blank lipid nanoparticles were prepared at a molar ratio of ionizable cationic lipid compound (each exemplary compound) : DSPC : cholesterol : 2-[(polyethylene glycol)-2000]-N,N-ditetradecylacetamide (ALC-0159) of 50:10:38.5:1.5. They were diluted in different pH buffer solutions having a pH ranging from 2 to 11. An aqueous TNS solution was added and mixed. Then, the mixtures were added to a 96-well plate (black bottom), respectively. Detection was performed with excitation wavelength at 325 nm and the emission wavelength at 435 nm, with top detection. Measurement was performed 10 times for each well, and the fluorescence intensity was recorded. A pH-fluorescence intensity curve was plotted to determine the apparent pKa.

| Structure (SMILES) | Particle Size [1] | Polydispersity Index (PDI) [1] | Encapsulation Rate [2] | HEK 293T Cell Luciferase Activity (HEK 293T cells) | Mouse Whole-Body Average Fluorescence Signal (female Balb/c mice) | Zeta Potential [3] | fluorescence intensity of luciferase expressed in HEK 293T cells (HEK 293T cells; different doses (50-400 ng per well), Fig. 1) | Apparent pKa [4] |
| --- | --- | --- | --- | --- | --- | --- | --- | --- |
| CCCCCCCCCCCCCCCC(CC)C(=O)OCC(COC(=O)C(CC)CCCCCCCCCCCCCCC)(COC(=O)C(CC)CCCCCCCCCCCCCCC)NCCC(=O)NCCN(CCO)CCO (racemic) [Compound 1014] | 85.4 nm | 0.111 | 70.3% | 2.86×10^6 RLU | 3.55×10^4 p/s/cm^2/sr | 3.06 mV |  |  |
| CCCCCCCCCC(CCCCCCCC)C(=O)OCC(COC(=O)C(CCCCCCCC)CCCCCCCCC)(COC(=O)C(CCCCCCCC)CCCCCCCCC)NCCN(C)CCCCO (racemic) [Compound 3425] | 82.37 nm | 0.021 | 89.4% | 6.86×10^6 RLU | 1.56×10^7 p/s/cm^2/sr | -21.2 mV |  |  |
| CCCCCCCCCCCCCCCC(CC)C(=O)OCC(COC(=O)C(CC)CCCCCCCCCCCCCCC)(COC(=O)C(CC)CCCCCCCCCCCCCCC)NC(=O)CN (stereo not shown) [Compound 1003] | 62.59 nm | 0.127 | 95.4% |  |  | -3.64 mV |  |  |
| CCCCCCCCCCCCCCCC(CC)C(=O)OCC(COC(=O)C(CC)CCCCCCCCCCCCCCC)(COC(=O)C(CC)CCCCCCCCCCCCCCC)NCCC(=O)NCCN(C)C (stereo not shown) [Compound 1005] | 55.44 nm | 0.076 | 91.7% | 1.01×10^8 RLU | 1.21×10^6 p/s/cm^2/sr | -0.105 mV | > 10^7 RLU | 6.10 |
| CCCCCCCCCCCC(CCCCCC)C(=O)OCC(COC(=O)C(CCCCCC)CCCCCCCCCCC)(COC(=O)C(CCCCCC)CCCCCCCCCCC)NCCC(=O)NCCN(C)C (stereo not shown) [Compound 1007] | 85.78 nm | 0.068 | 95.9% | 1.60×10^5 RLU | 1.34×10^6 p/s/cm^2/sr | -4.98 mV |  | 5.13 |
| CCCCCCCCCC(CCCCCCCC)C(=O)OCC(COC(=O)C(CCCCCCCC)CCCCCCCCC)(COC(=O)C(CCCCCCCC)CCCCCCCCC)NCCC(=O)NCCN(C)C (stereo not shown) [Compound 1008] | 73.49 nm | 0.019 | 95.1% | 1.86×10^6 RLU | 7.66×10^5 p/s/cm^2/sr | -6.06 mV |  | 6.14 |
| CCCCCCCCCCCCCCCC(CC)C(=O)OCC(COC(=O)C(CC)CCCCCCCCCCCCCCC)(COC(=O)C(CC)CCCCCCCCCCCCCCC)NCCC(=O)NCCN(CCCO)CCCO (stereo not shown) [Compound 1015] | 102.3 nm | 0.136 | 80.3% | 6.27×10^7 RLU | 1.43×10^4 p/s/cm^2/sr | 4.27 mV |  |  |
| CCCCCCCCCCCCCCCC(CC)C(=O)OCC(COC(=O)C(CC)CCCCCCCCCCCCCCC)(COC(=O)C(CC)CCCCCCCCCCCCCCC)NCCC(=O)NCCN(C)CCO (stereo not shown) [Compound 1025] | 77.74 nm | 0.072 | 64.5% |  | 4.20×10^5 p/s/cm^2/sr | 2.84 mV |  |  |
| CCCCCCCCCC(CCCCCCCC)C(=O)OCC(COC(=O)C(CCCCCCCC)CCCCCCCCC)(COC(=O)C(CCCCCCCC)CCCCCCCCC)NCCC(=O)NCCN1CCNCC1 (stereo not shown) [Compound 1111] | 110.3 nm | 0.103 | 83.2% | 3.29×10^4 RLU | 3.10×10^5 p/s/cm^2/sr | -0.902 mV |  |  |
| CCCCCCCCCC(CCCCCCCC)C(=O)OCC(COC(=O)C(CCCCCCCC)CCCCCCCCC)(COC(=O)C(CCCCCCCC)CCCCCCCCC)NCCC(=O)NCCN(C)CCn1cnc2c(N)ncnc21 (stereo not shown) [Compound 1139] | 74.13 nm | 0.064 | 91.1% | 4.23×10^5 RLU | 3.87×10^5 p/s/cm^2/sr | -7.8 mV |  |  |
| CCCCCCCCCCCCCCCC(CC)C(=O)OCC(COC(=O)C(CC)CCCCCCCCCCCCCCC)(COC(=O)C(CC)CCCCCCCCCCCCCCC)NCCC(=O)NCCN(C)CCNC(=N)N (stereo not shown) [Compound 1140] | 63.21 nm | 0.127 | 92.4% | 2.13×10^4 RLU | 6.21×10^4 p/s/cm^2/sr | 4.39 mV |  |  |
| CCCCCCCCCC(CCCCCCCC)C(=O)OCC(COC(=O)C(CCCCCCCC)CCCCCCCCC)(COC(=O)C(CCCCCCCC)CCCCCCCCC)NC(=O)CNCCN(C)CCCCO (stereo not shown) [Compound 3423] | 87.5 nm | 0.086 | 96.0% | 3.97×10^5 RLU | 5.53×10^5 p/s/cm^2/sr | -18.6 mV |  |  |
| CCCCCCCCCCCCCCCC(CC)C(=O)OCC(COC(=O)C(CC)CCCCCCCCCCCCCCC)(COC(=O)C(CC)CCCCCCCCCCCCCCC)NCCN(C)CCCCO (stereo not shown) [Compound 3424] | 94.71 nm | 0.115 | 88.9% | 1.81×10^4 RLU | 9.34×10^4 p/s/cm^2/sr | -0.327 mV |  |  |
| CCCCCCCCCCCCCCCC(CC)C(=O)OCC(COC(=O)C(CC)CCCCCCCCCCCCCCC)(COC(=O)C(CC)CCCCCCCCCCCCCCC)NCCCCCCN(C)CCCCO (stereo not shown) [Compound 3426] | 85.51 nm | 0.104 | 95.5% | 3.01×10^5 RLU | 5.67×10^6 p/s/cm^2/sr | 2.23 mV |  |  |
| CCCCCCCCCCCCCCCC(CC)C(=O)OCC(COC(=O)C(CC)CCCCCCCCCCCCCCC)(COC(=O)C(CC)CCCCCCCCCCCCCCC)NC(=O)CNCCN(C)CCCCO (stereo not shown) [Compound 3427] | 70.81 nm | 0.126 | 96.1% | 5.18×10^5 RLU | 8.24×10^6 p/s/cm^2/sr | 3.8 mV |  |  |
| CCCCCCCCCC(CCCCCCCC)C(=O)OCC(COC(=O)C(CCCCCCCC)CCCCCCCCC)(COC(=O)C(CCCCCCCC)CCCCCCCCC)NCCCCN(C)CCCCO (stereo not shown) [Compound 3428] | 83.84 nm | 0.046 | 96.6% | 3.23×10^5 RLU | 2.04×10^5 p/s/cm^2/sr | -17.8 mV |  |  |
